Patent US20260166076A1, “PHARMACEUTICAL COMPOSITION CONTAINING ZINC POLYPHOSPHATE” (Kamui Pharma, Inc., priority 2022, published 2026)
Marks after values point to notes of the source that are not given here.

Experiments:
[1] = system: inflammatory cytokines (IL1β, TNFα, IL6, IFNγ, IL17A); test: DSS acute enteritis model (Example 9, dose examination): RT-PCR of cytokine mRNA; assay type: in vivo, BALB/c mice; conditions: 20 μg/head oral daily day 5-11, day 12
Method: (§1) The colon was cut and open in half using scissors, and the intestinal mucosa was detached with a slide glass. Intestinal mucosal tissue was soaked in 0.5 ml TRIzol (ThermoFisher Scientific K.K.), frozen in liquid nitrogen, and stored at −80° C. After thawing each stored sample at room temperature, RNA was recovered according to the procedure instructed by ThermoFisher Scientific K.K. The recovered total RNA was purified using an RNeasy Mini kit (Qiagen) and reverse-transcribed using a High-Capacity cDNA Reverse Transcription Kit (ThermoFisher Scientific K.K.). A PCR reaction was performed, using the recovered cDNA as a template, with EagleTaq Universal Master Mix with ROX (Roche). The primers (TaqMan Gene Expression Assays; ThermoFisher Scientific K.K.) used in the reaction are as follows. IL1β: Mm01336189, TNFα: Mm00443258, IL6: Mn00446190, IFNγ: Mm99999071. Changes in each gene expression level were standardized based on the expression level of Eukaryotic 18S rRNA Endogenous Control (ThermoFisher Scientific K.K.). Spectrum data was acquired using the Applied Biosystems 7300 Real Time PCR system.
(§2) Dextran sodium sulfate (DSS) (MP-BioMedicals; 160110) was dissolved in distilled water to prepare 2% DSS solution. Chemical-induced enteritis was triggered in BALB/c mice (Charles River, Japan) by administering the solution as drinking water ad libitum for 5 days, and acute enteritis was developed while distilled water was supplied as drinking water ad libitum from day 5 to day 12 (necropsy day). Zinc polyphosphate PPA-Zn (1, 5, 20, or 50 μg/head each) or tacrolimus (20 μg/head) was orally administered daily from day 5 to day 11, and on day 12, the mice were subjected to various tests (FIG. 8).
(§3) The mRNA expression levels of various cytokines (IL1β, TNFα, IL6, IFNγ, and IL17A) were analyzed according to Example 6, and the improvement rate was calculated (Table 6). The primers (TaqMan Gene Expression Assays; ThermoFisher Scientific K.K.) used in the reaction are as follows. IL1β: Mm01336189, TNFα: Mm00443258, IL6: Mn00446190, IFNγ: Mm99999071, IL17A: Mm00439618.

[2] = system: DSS acute enteritis model; test: DSS acute enteritis model (Example 6): intestinal length and histopathological evaluation; assay type: in vivo, BALB/c mice; conditions: DSS mice; polyphosphate 5 μg/head or TAC 60 μg/head oral daily day 0-7; day 8
Method: (§4) Dextran sodium sulfate (DSS) (MP-BioMedicals; 160110) was dissolved in distilled water to prepare 2% DSS solution. Chemical-induced enteritis was triggered in BALB/c mice (Charles River, Japan) by administering the solution as drinking water ad libitum for 5 days, and acute enteritis was developed while distilled water was supplied as drinking water ad libitum from day 6 to day 8 (necropsy day). Each polyphosphate (PPA-Na, PPA-Ca, PPA-Zn, or PPA-Mg; 5 μg/head each) or tacrolimus (TAC; 60 μg/head; Sigma CORPORATION, PHR1809) was orally administered daily from day 0 to day 7, and on day 8, the mice were subjected to various tests.
(§5) Mice were euthanized by cervical dislocation under isoflurane anesthesia, and the entire length of the colon was excised after opening the abdomen with scissors. The length of the excised colon was measured on a scale (FIG. 5).
(§6) Each colon tissue was Swiss rolled (Moolenbeek C, Lab Anim. 1981) and fixed in 10% formalin according to the procedure instructed by Moolenbeek C et al. The tissue was paraffin-embedded, thinly sliced to 4 μm, and stained with hematoxylin & eosin as a prepared specimen. The tissue was pathologically evaluated by inflammatory tissue scoring (Berg DJ, J Clin Invest, 1996) as described by Berg et al. The improvement rate (%) was calculated according to the following formula (Table 4).

[3] = system: inflammatory cytokines (TNFα, IL1β, IL6, IFNγ); test: DSS acute enteritis model (Example 6): RT-PCR of inflammatory cytokines in intestinal mucosa; assay type: in vivo, BALB/c mice; conditions: polyphosphate 5 μg/head or TAC 60 μg/head oral daily day 0-7, day 8
Method: as §4, §1

[4] = system: DSS acute enteritis model; test: DSS acute enteritis model (Example 9, dose examination): intestinal length and histopathological evaluation; assay type: in vivo, BALB/c mice; conditions: DSS mice; 20 μg/head oral daily day 5-11; day 12
Method: as §5, §6, §2
The intestinal length after zinc polyphosphate treatment was measured according to Example 6, and the improvement rate was calculated (FIG. 8).
Each tissue was pathologically evaluated by inflammatory tissue scoring according to Example 6, and the improvement rate was calculated (Table 6).

[5] = system: DSS acute enteritis model; test: DSS acute enteritis model (Example 10, after long-term storage): intestinal length and histopathological evaluation; assay type: in vivo; conditions: DSS mice, day 12; PPA-Zn initial (not stored) or TAC
Method: as §5, §6
(§7) Zinc polyphosphate Test 15-2 was stored under a condition at 60° C. and 75% RH for 8 weeks according to Example 2. The zinc polyphosphate Test 15-2 after storage was used to evaluate efficacy in the DSS acute enteritis model, measure the intestinal length, perform RT-PCR, and evaluate the histopathological severity according to Example 6 (Table 7, FIG. 9).
(§8) DDS acute enteritis model mice were generated according to Example 6 and subjected to various tests on day 12 (FIG. 9).
The intestinal length after zinc polyphosphate treatment was measured according to Example 6, and the improvement rate was calculated (FIG. 9).
Each tissue was pathologically evaluated by inflammatory tissue scoring according to Example 6, and the improvement rate was calculated (Table 7).

[6] = system: inflammatory cytokines (IL1β, TNFα, IL6, IFNγ, IL17A); test: DSS acute enteritis model (Example 10, after long-term storage): RT-PCR of cytokine mRNA; assay type: in vivo, mice; conditions: day 12, PPA-Zn initial (not stored) or TAC
Method: as §1, §7, §8
as §3, with “7).” for “6).”

[7] = relative value when control is set to 1

C=CC[C@@H]1/C=C(\C)C[C@H](C)C[C@H](OC)[C@H]2O[C@@](O)(C(=O)C(=O)N3CCCC[C@H]3C(=O)O[C@H](/C(C)=C/[C@@H]3CC[C@@H](O)[C@H](OC)C3)[C@H](C)[C@@H](O)CC1=O)[C@H](C)C[C@@H]2OC [TAC, tacrolimus]
Improvement rate IFNγ ([1]; DSS mice): 63% | Improvement rate IL1β ([1]; DSS mice): 31% | Improvement rate IL6 ([1]; DSS mice): 73% | Improvement rate IL17A ([1]; DSS mice): 66% | Improvement rate TNFα ([1]; DSS mice): 39% | Changes in inflammatory cytokines IFNγ [1, 7]: 1.5 ± 0.8 | Changes in inflammatory cytokines IL1β [1, 7]: 85.9 ± 117.1 | Changes in inflammatory cytokines IL6 [1, 7]: 27.2 ± 52.4 | Changes in inflammatory cytokines IL17A [1, 7]: 53.9 ± 77 | Changes in inflammatory cytokines TNFα [1, 7]: 5.4 ± 4.5 | Improvement rate Histological severity [2]: 40% * | Improvement rate Intestinal length [2]: 43% * | Macro findings Intestinal length [2]: 109.8 ± 6.5 mm | Micro findings Histological severity [2]: 1.8 ± 0.4 | Improvement rate IFNγ ([3]; DSS mice): 98% | Improvement rate IL1β ([3]; DSS mice): 88% * | Improvement rate IL6 ([3]; DSS mice): 94% | Improvement rate TNFα ([3]; DSS mice): 85% * | Changes in inflammatory cytokines IFNγ [3, 7]: 2 ± 0.9 | Changes in inflammatory cytokines IL1β [3, 7]: 6.7 ± 6.3 | Changes in inflammatory cytokines IL6 [3, 7]: 5.1 ± 2.3 | Changes in inflammatory cytokines TNFα [3, 7]: 2.2 ± 0.5 | Improvement rate Histological severity [4]: 27% | Improvement rate Intestinal length [4]: 9% | Macro findings Intestinal length [4]: 99.4 ± 12.6 mm | Micro findings Histological sovority [4]: 2.4 ± 1.3 | Improvement rate Histological severity [5]: 42% | Improvement rate Intestinal length [5]: 12% | Macro findings Intestinal length [5]: 89 ± 4.5 mm | Micro findings Histological severity [5]: 2.3 ± 0.5 | Improvement rate IFNγ ([6]; DSS mice): 79% | Improvement rate IL1β ([6]; DSS mice): 44% | Improvement rate IL6 ([6]; DSS mice): 76% | Improvement rate IL17A ([6]; DSS mice): 80% | Improvement rate TNFα ([6]; DSS mice): 50% | Changes in inflammatory cytokines IFNγ [6, 7]: 12.1 ± 27.7 | Changes in inflammatory cytokines IL1β [6, 7]: 201.1 ± 211.7 | Changes in inflammatory cytokines IL6 [6, 7]: 49.5 ± 55.5 | Changes in inflammatory cytokines IL17A [6, 7]: 192.9 ± 321.9 | Changes in inflammatory cytokines TNFα [6, 7]: 8.2 ± 5
